Laboratory results as given in patent publication US20260256792A1, “TREATMENT OF CHRONIC SPONTANEOUS URTICARIA BY ADMINISTERING (R)-2-[3-[4-AMINO-3-(2-FLUORO-4-PHENOXY-PHENYL)PYRAZOLO[3,4-D]PYRIMIDIN-1-YL]PIPERIDINE-1-CARBONYL]-4-METHYL-4-[4-(OXETAN-3-YL)PIPERAZIN-1-YL]PENT-2-ENENITRILE” (priority 2023, published 2026).

System: moderate-to-severe chronic spontaneous urticaria (CSU)
Experiment: Phase 2 CSU study: urticaria activity score over 7 days (UAS7)
Assay type: in vivo, human
Parameters: key to UAS7 Median / UAS7 Change from baseline Median / UAS7 change from baseline, Q1 / UAS7 change from baseline, Q3 / UAS7 change from baseline, Max / UAS7 Change from baseline LS Mean (SE): UAS7 points; daily UAS score ranges 0–6 points/day, over 7 days
Excerpt: The study comprises a 12 week, randomized, double-blind, placebo-controlled, multi-center, dose-ranging efficacy and safety phase, followed by a 40 week open label extension (OLE) phase (see FIG. 1). The study consists of three phases and an optional OLE phase. […] Clinically, CSU is characterized by the spontaneous and recurrent appearance of pruritic hives. The proposed primary endpoints were the UAS7 at Week 12 in EU and EU reference countries and the ISS7 in the US. Regardless of where a participant was from, all assessments were the same. The UAS7 score is a composite score containing both the HSS7 and the ISS7. This allowed a global assessment of the two key components of urticaria: hives and itch. […] The UAS is a validated PRO measure. […] The daily UAS scores range from 0 to 6 point/day. […] Patients were to complete the UAS using the e-diary. […] The following secondary endpoints were to be analyzed using the same approach as for the primary endpoint: • Change from baseline in UAS7 at Week 4 • Change from baseline in UAS7 at Week 12 (for US and US reference countries) • Change from baseline in ISS7 at Week 12 (except US and US reference countries) • Change from baseline in HSS7 at Week 12 The following responder secondary endpoints were to be analyzed using the Cochran-Mantel-Haenszel test adjusted by region: • Proportion of participants with UAS7<6 at Week 12 • Proportion of participants with UAS7=0 at Week 12 Participants who received selected prohibited medications and/or rescue medications were to be considered as non-responders for time points after the medication usage. For other participants, all available data including those collected during the off-treatment period were to be used to determine the responder/non-responder status. Missing data were to be considered as non-responders.

[1] = Week 3, 400 mg TID, Omalizumab-Naïve
[2] = Week 3, 400 mg TID, Prior Omalizumab Use
[3] = Week 3, 400 mg TID, omalizumab-naive participants
[4] = Week 4, 400 mg BID, ITT population
[5] = Week 4, 400 mg BID, Omalizumab-Naïve
[6] = Week 4, 400 mg BID, Prior Omalizumab Use
[7] = Week 4, 400 mg BID, omalizumab-naive participants
[8] = Week 4, 400 mg QPM, ITT population
[9] = Week 4, 400 mg QPM, Omalizumab-Naïve
[10] = Week 4, 400 mg QPM, Prior Omalizumab Use
[11] = Week 4, 400 mg QPM, omalizumab-naive participants
[12] = Week 4, 400 mg TID, ITT population
[13] = Week 4, 400 mg TID, Omalizumab-Naïve
[14] = Week 4, 400 mg TID, Prior Omalizumab Use

## CC(C)(C=C(C#N)C(=O)N1CCC[C@@H](n2nc(-c3ccc(Oc4ccccc4)cc3F)c3c(N)ncnc32)C1)N1CCN(C2COC2)CC1 [rilzabrutinib, (R)-2-[3-[4-amino-3-(2-fluoro-4-phenoxy-phenyl)pyrazolo[3,4-d]pyrimidin-1-yl]piperidine-1-carbonyl]-4-methyl-4-[4-(oxetan-3-yl)piperazin-1-yl]pent-2-enenitrile]
[1]
  UAS7 Percent change from baseline Mean (SD): −48.87 (33.07) %
  UAS7 Percent change from baseline Median: −48.08%
[2]
  UAS7 Change from baseline Mean (SD): −24.14 (11.99)
  UAS7 Change from baseline Median: −24.50
  UAS7 Median: 7.67
  UAS7 Percent change from baseline Mean (SD): −71.37 (19.75) %
  UAS7 Percent change from baseline Median: −64.58%
[3]
  Non-responder, UAS7 reduction from baseline of 10 points or more: 14 (40.0) n (%)
  OR for rilzabrutinib vs. placebo, UAS7 reduction of 10 points or more: 2.949
  RRD (%) for rilzabrutinib vs. placebo, UAS7 reduction of 10 points or more: 27.1 %
  Responder, UAS7 reduction from baseline of 10 points or more: 21 (60.0) n (%)
[4]
  Non-responder, UAS7 reduction from baseline of 10 points or more: 19 (46.3) n (%)
  OR for rilzabrutinib vs. placebo, UAS7 reduction of 10 points or more: 1.853
  RRD (%) for rilzabrutinib vs. placebo, UAS7 reduction of 10 points or more: 14.7 %
  Responder, UAS7 reduction from baseline of 10 points or more: 22 (53.7) n (%)
[5]
  UAS7 Change from baseline Mean (SD): −13.49 (10.97)
  UAS7 Change from baseline Median: −11.00
  UAS7 Mean (SD): 15.92 (11.71)
  UAS7 Median: 14.00
  UAS7 Percent change from baseline Mean (SD): −46.55 (35.69) %
  UAS7 Percent change from baseline Median: −41.94%
[6]
  UAS7 Change from baseline Mean (SD): −21.80 (16.62)
  UAS7 Change from baseline Median: −26.00
  UAS7 Mean (SD): 13.60 (16.55)
  UAS7 Median: 3.00
  UAS7 Percent change from baseline Mean (SD): −62.33 (45.90) %
  UAS7 Percent change from baseline Median: −91.43%
[7]
  Non-responder, UAS7 reduction from baseline of 10 points or more: 17 (48.6) n (%)
  OR for rilzabrutinib vs. placebo, UAS7 reduction of 10 points or more: 2.046
  RRD (%) for rilzabrutinib vs. placebo, UAS7 reduction of 10 points or more: 16.8 %
  Responder, UAS7 reduction from baseline of 10 points or more: 18 (51.4) n (%)
[8]
  Non-responder, UAS7 reduction from baseline of 10 points or more: 23 (60.5) n (%)
  OR for rilzabrutinib vs. placebo, UAS7 reduction of 10 points or more: 1.224
  RRD (%) for rilzabrutinib vs. placebo, UAS7 reduction of 10 points or more: 4.4 %
  Responder, UAS7 reduction from baseline of 10 points or more: 15 (39.5) n (%)
[9]
  UAS7 Change from baseline Mean (SD): −9.18 (9.24)
  UAS7 Change from baseline Median: −7.00
  UAS7 Mean (SD): 21.92 (8.82)
  UAS7 Median: 21.00
  UAS7 Percent change from baseline Mean (SD): −27.91 (26.53) %
  UAS7 Percent change from baseline Median: −21.88%
[10]
  UAS7 Change from baseline Mean (SD): −23.00 (NC)
  UAS7 Change from baseline Median: −23.00
  UAS7 Mean (SD): 18.00 (NC)
  UAS7 Median: 18.00
  UAS7 Percent change from baseline Mean (SD): −56.10 (NC) %
  UAS7 Percent change from baseline Median: −56.10%
[11]
  Non-responder, UAS7 reduction from baseline of 10 points or more: 23 (62.2) n (%)
  OR for rilzabrutinib vs. placebo, UAS7 reduction of 10 points or more: 1.322
  RRD (%) for rilzabrutinib vs. placebo, UAS7 reduction of 10 points or more: 6.0 %
  Responder, UAS7 reduction from baseline of 10 points or more: 14 (37.8) n (%)
[12]
  Non-responder, UAS7 reduction from baseline of 10 points or more: 12 (29.3) n (%)
  OR for rilzabrutinib vs. placebo, UAS7 reduction of 10 points or more: 3.520
  RRD (%) for rilzabrutinib vs. placebo, UAS7 reduction of 10 points or more: 29.4 %
  Responder, UAS7 reduction from baseline of 10 points or more: 29 (70.7) n (%)
[13]
  UAS7 Change from baseline Mean (SD): −15.51 (9.79)
  UAS7 Change from baseline Median: −14.00
  UAS7 Mean (SD): 14.65 (9.61)
  UAS7 Median: 14.00
  UAS7 Percent change from baseline Mean (SD): −51.19 (29.70) %
  UAS7 Percent change from baseline Median: −51.09%
[14]
  UAS7 Change from baseline Mean (SD): −22.94 (13.84)
  UAS7 Change from baseline Median: −22.50
  UAS7 Mean (SD): 10.08 (10.62)
  UAS7 Median: 8.58
  UAS7 Percent change from baseline Mean (SD): −67.07 (27.75) %
